For data set [1] the following is noted: mouse, in vivo. As for the experimental part:
Peptides conjugated to 5 kD PEG and 12 kD PEG were injected into nude mice bearing HT-1080 xenografts at a dose of 6 nmoles per animal (FIG. 24). […] As controls, a scrambled version of the PLGLAG (SEQ ID NO: 1) cleavable sequence denoted as LALGPG (SEQ ID NO: 48) and a d-amino acid version of the PLGLAG (SEQ ID NO: 1) sequence denoted as plglag were also injected. […] Because of what was what was available at the time, the polyoma transgenic mice were tested in wildtype and iNOS−/− backgrounds.
As the last molecule in the large molecular weight carrier series, 1725 was a fifth generation PAMAM dendrimer conjugated to two MMP cleavable selective transport molecules. The remaining 126 attachment sites were capped with succinyl groups. […] This molecule was injected into both HT-1080 tumor bearing nude transgenic PyMT mice at varying concentrations.

Data set [2] has as its system HT-1080 tumor bearing nude / transgenic PyMT mice. Conditions: mouse, in vivo. As for the experimental part:
Animals expressing the polyoma middle T transgene (PyMT) driven by the MMTV promoter were obtained from Lesley Ellies. Nude animals bearing HT-1080 xenografts were either generated in house or were obtained from Explora Biosciences. Either way, tumors were used once they reached a diameter of […]. Animals were anesthetized with ketamine/midazolam (80 mg/kg, 40 mg/kg) and injected with the indicated construct through the tail vein Animals were typically observed throughout the first hour as they woke up from anesthesia. They were re-anesthetized and imaged at six hours, 12 hours, 24 hours and 48 hours as needed. After the last imaging session, animals were sacrificed by overdose of halothane. The imaging system used evolved over time. For most of the PEGylated conjugates, a simple light box was used, though the image shown is one of the first taken with the Maestro spectral deconvolution imager. The albumin, dextran and PAMAM dendrimer conjugates were tested using a 620/20 excitation filter and collecting images at 680 nm. The streptavidin conjugates were tested using a 640/48 excitation filter, with images collected at 700 nm.
Standardized Uptake Values were initially measured without tissue specific calibrations and were later re-adjusted to take tissue specificity and a light source change into account. […]

Data set [3] relates to HT1080 human fibrosarcoma. The note with it: for toxicity: 44 μmol/kg. How it is done:
A selective transport molecule-Podophyllotoxin (selective transport molecule-podo) conjugate by reacting podo-ss-pyridine with Suc-e8-xPLGLAG-r9-c, purified by HPLC and confirmed by mass spectrometry. The peptide was stored as a TFA salt and the yield was determined by mass. For animal experiments, athymic nude mice were injected with 1×0^6HT1080 human fibrosarcoma cells in the mammary fat pad. After one week when tumors were 30-50 mm^3 mice were injected IP once every other day for a total of three times with 10 μmol/kg of either podophyllotoxin, selective transport molecule alone, or selective transport molecule-podo.
(§1) Therefore we synthesized Suc-e8-xPLGLAG-r9-c(ss-podophyllotoxin) to test in cell culture. […] In order to decide upon a starting dose, we tested podophyllotoxin by itself to determine the effective dose for shrinking tumors.
Three mice in each treatment group were injected with 3 doses, one dose every other day.

For data set [4], the system named is HT1080 human fibrosarcoma. Conditions: 48-100 μmol/kg after multiple doses; cited from earlier work.
Data set [5] deals with HT1080 tumor. Description: Doxorubicin conjugated dendrimers in HT1080 tumor bearing mice. The data set is classed as in vivo. Conditions: single dose.
Description: In multiple experiments, HT1080 bearing nude mice were injected with a single specific dose of doxorubicin dendrimer. […] Mouse weights and tumor volumes were measured regularly. For the urea and the Peg hydrazone dendrimers, mice were imaged spectrally 7 days after injection. Using the Maestro (CRI) spectral deconvolution system and software, doxorubicin fluorescence (red) was separated out from autofluorescence (green). Tumors were removed and imaged by spectral deconvolution and brightfield. For aromatic and thioether dendrimers there were 4 mice for each treatment group but only 2 mice for the urea and Peg hydrazone dendrimers because of limited dendrimer synthesis yields.
Data set [6] addresses T1, recombinant MMP-9 (Homo sapiens, UniProt P14780).
T1 construct: purchased EMD Biosciences
Nature of the data set: Enzyme cleavage assay of albumin reacted maleimide peptide. The data set is classed as biochemical. Conditions: 50 nM MMP-9. How it is done: (§2) Maleimide peptides were initially reacted with mouse serum albumin (Sigma) at 40 mg/mL or fresh frozen mouse plasma for one hour. Samples were run on a tricine buffered 10-20% polyacrylamide gel and imaged for Cy5 fluorescence on a UVP gel imager. For the enzyme cleavage assay, Cy5-monomaleimide and the cleavable maleimide peptides were reacted as 2 nmol with mouse serum albumin at 40 mg/mL in 25 mM hepes buffer. The stock was then diluted 1:[…] with 50 nM of recombinant MMP-9 (EMD Biosciences) and digested for 20 minutes and 4 hours then run on a tricine gel and imaged by Cy5.
(§3) Malemide selective transport molecule was reacted mouse serum albumin and plasma in aqueous conditions to determine that peptide reacts with albumin in a test tube. […] Plasma seemed to give somewhat more complete reaction.

For data set [7], the target named is T2, mouse serum albumin (Mus musculus, UniProt P07724).
T2 construct: Albumin reactive selective transport molecules create a robust reaction with native albumin; purchased Sigma
Description: Reaction of maleimide peptide with albumin. Conditions: within an hour of mixing, PAGE. How it is done: as §2, §3

The subject of data set [8] is HT1080 human fibrosarcoma. Description: Optical imaging of albumin reactive peptides in HT1080 tumor bearing mice. The data set is classed as in vivo. The note with it: 3 nmols IV, 24 hours. How it is done:
(§4) Nude mice were injected with 2×^06HT1080 human fibrosarcoma cells in the left #2 mammary fat pad. Experiments were performed 5-7 days post injection. Polyoma Middle T mice (PyMT) were provided by Lesley Ellies and they were injected with peptide IV between 9-12 wks of age when medium to large sized tumors were present in each mammary fat pad. One million mouse mammary adenocarcinoma 4T1.2 cells (from Robyn Anderson, University of Melbourne) were injected into the left mammary fat pad of nude mice (FIGS. 4 and 7) and Balb/c mice (FIGS. 8 and 9) and 5-20 days later were injected with peptide and imaged.
(§5) When tumors were of sufficient size 5-20 days after injection of tumor cells the peptide was injected IV and imaged on the Maestro small animal imager (CRI). Animals were sacrificed by overdose with Isoflurane and dissected. To examine lung metastases, the lungs were inflated with OCT cryoprotectant and imaged on the small animal imager. Blood measurements were taken by bleeding the tail vein at a specified time point and collected in a capillary tube. The tubes were then imaged for presence of the Cy5 fluorescent peptide using the small animal imager. For processing of tissues for gels, 30 mg of tissue was homogenized in a 1% SDS Tris buffer then heated at 80° C. for 10 min and centrifuged. The supernatant was then diluted 1:10 and run on a tricine gel and imaged by fluorescence. […]

Data set [9] has as its system cells. Description: Toxicity of podophyllotoxin conjugate in cell culture. The data set is classed as cell-based.
Description: as §1

The subject of data set [10] is 4T1.2 tumor. Description: Plasma pre-reaction of maleimide peptide, blood levels and tumor fluorescence. The data set is classed as in vivo, mice. Conditions: 48 hours. How it is done:
as §4, §5

Setting [11] is: 10 μmol/kg IP, 3 doses, one every other day.

Read-outs that look alike come from different tables or passages of the source.

T1 sequence (P14780 94-707, species assumed): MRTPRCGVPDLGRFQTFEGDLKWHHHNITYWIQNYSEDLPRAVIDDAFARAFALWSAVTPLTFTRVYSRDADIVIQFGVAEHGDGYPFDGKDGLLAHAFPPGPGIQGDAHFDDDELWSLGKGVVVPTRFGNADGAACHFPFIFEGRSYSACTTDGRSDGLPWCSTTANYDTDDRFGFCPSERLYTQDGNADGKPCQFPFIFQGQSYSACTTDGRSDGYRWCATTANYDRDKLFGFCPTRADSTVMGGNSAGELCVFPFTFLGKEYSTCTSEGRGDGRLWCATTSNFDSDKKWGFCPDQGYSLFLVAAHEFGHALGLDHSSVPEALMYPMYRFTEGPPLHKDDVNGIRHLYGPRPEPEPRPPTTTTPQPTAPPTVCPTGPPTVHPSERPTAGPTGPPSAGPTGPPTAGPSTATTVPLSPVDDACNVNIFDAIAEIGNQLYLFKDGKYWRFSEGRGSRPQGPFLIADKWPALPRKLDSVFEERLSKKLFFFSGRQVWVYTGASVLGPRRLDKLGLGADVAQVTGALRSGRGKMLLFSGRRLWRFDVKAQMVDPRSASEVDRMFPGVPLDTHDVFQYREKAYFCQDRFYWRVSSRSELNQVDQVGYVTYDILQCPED
T2 sequence (P07724 25-608): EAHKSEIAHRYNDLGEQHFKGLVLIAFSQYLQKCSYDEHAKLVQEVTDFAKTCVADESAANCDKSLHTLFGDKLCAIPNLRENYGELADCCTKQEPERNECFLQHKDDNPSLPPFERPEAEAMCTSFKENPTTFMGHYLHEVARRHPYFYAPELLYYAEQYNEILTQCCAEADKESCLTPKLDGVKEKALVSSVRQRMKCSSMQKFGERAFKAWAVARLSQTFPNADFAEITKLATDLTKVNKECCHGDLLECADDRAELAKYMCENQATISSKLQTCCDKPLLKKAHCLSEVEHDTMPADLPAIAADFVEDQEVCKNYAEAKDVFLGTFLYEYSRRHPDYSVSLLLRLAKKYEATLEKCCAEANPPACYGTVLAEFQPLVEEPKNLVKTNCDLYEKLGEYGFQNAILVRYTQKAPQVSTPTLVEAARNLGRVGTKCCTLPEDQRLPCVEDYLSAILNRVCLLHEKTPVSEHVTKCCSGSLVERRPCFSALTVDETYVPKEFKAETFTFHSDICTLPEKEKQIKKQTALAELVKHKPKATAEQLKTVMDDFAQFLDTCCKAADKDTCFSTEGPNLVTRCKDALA

Regarding “Generation 5 PAMAM-(e9-XPLGLAX-r9-k(cy5))2(succ)126”, in data set [1], the “blood halflife, first phase (biphasic)” value was “under 10 minutes” and the “blood halflife, second phase (biphasic)” value fell in the range of 10 to 15 h.
Regarding “G5PAMAM-[e9-XPLGLAG-r9-k(cy5)][PEG]127 [G5PAMAM-[e9-XPLGLAG-r9-k(cy5)] [PEG]127]”, in [2], the “tumor uptake relative to PLGLAX dendrimer” value is “decreased tumor uptake”.
Regarding `COc1cc([C@@H]2c3cc4c(cc3[C@H](O)[C@H]3COC(=O)[C@H]23)OCO4)cc(OC)c1OC` [podophyllotoxin, reference compound], the “effect on tumor growth” value in data set [3] (setting [11]) is “not efficacious”; in data set [3] (10 μmol/kg IP, 3 doses, one every other day, listed as Podo), “no therapeutic activity or toxicity”; in data set [3] (3 injections at 44 μmol/kg every other day) it was “sufficient to significantly slow tumor growth but not provide a cure”. The toxicity entry in data set [3] is “no obvious signs of toxicity”. Besides, the “toxicity (literature)” value in data set [4] was “minimal toxicity”.
Take `COc1cccc2c1C(=O)c1c(O)c3c(c(O)c1C2=O)C[C@@](O)(C(=O)CO)C[C@@H]3O[C@H]1C[C@H](N)[C@H](O)[C@H](C)O1` [doxorubicin]: the “anti-tumor activity (qualitative)” value in data set [5] is “continually beat the dendrimers in anti-tumor activity”.
Consider “G5-PAMAM-[e9-XPLGLAX-r9-k(cy5)]2[PEG]126”, for which, in [1], the “Approx Plasma Halflife” value is recorded as ~20 h and the blood halflife result is recorded as “over 10 hours”.
On to mal-e9-oPLG(Cme)AG-r9-c(cy5), for which the “time to near complete cleavage off albumin” value in [6] is “less than 4 hours”. The “reaction with mouse serum albumin or plasma” value in data set [7] is recorded as “most of the peptide reacted with MSA or plasma albumin”. Also, the “tumor uptake (Cy5 fluorescence)” value in data set [8] is “much greater with the cleavable peptide compared to the uncleavable peptide”.
On to “Suc-e8-xPLGLAG-r9-c(ss-podophyllotoxin) [selective transport molecule-podo]”, for which the body weight result in [3] (10 μmol/kg IP, 3 doses) is “lost significant weight”. The “effect on tumor growth” value in data set [3] (setting [11]) is “modest slowing of growth”. The toxicity result in [3] is “acutely toxic”. For the same molecule, in data set [9], the toxicity on cells result was “submicromolar toxicity”.
As for 12kD-PEG-e9-XPLGLAG-r9-k(cy5), in data set [1], the “Approx Plasma Halflife” value is recorded as ~20 m and the blood halflife result is on record as “approximately 20 minutes”.
As to Streptavidin-[e9-XPLGLAG-r9-k(cy5)]4, the “Approx Plasma Halflife” value in data set [1] is reported as ~4 h.
For Cy5-monomaleimide, in data set [10], the “tumor fluorescence / uptake” value was “significantly less fluorescence”.
On to Suc-e8-xPLGLAG-r9-c(Cy5), for which the “tumor uptake (Cy5 fluorescence)” value in data set [8] is reported as “difficult to detect”.
Take “G5PAMAM-[e9-OPLG(MeC)AG-r9-k(cy5)][PEG]127]”: in [2], the “liver uptake relative to PLGLAX dendrimer” value was “decrease by a factor of two”.

Source of the values: US9682151B2, “Peptides whose uptake in cells is controllable” (The Regents of the University of California, priority 2009, dated 2017).
